Consider one substance from publication PMC11889359, “Site-Specific Competitive Kinase Inhibitor Target Profiling Using Phosphonate Affinity Tags” (Molecular & Cellular Proteomics : MCP, 2025).

Several values for one entry are separate records, joined by “and”; a condition that tells them apart may be missing. Equal entries are not always repeated. Where two headings read alike, the source gives them in different places.

What all share (assay): Competitive site-specific PhosID-ABPP with XO44 in intact A549 cells
Holding throughout (assay type): binding

One test deals with T1, EphA2 (Homo sapiens, UniProt P29317).
T1 construct: endogenous in cells; host or cells: cultured cells treated intact (A549 per the earlier reading)
To be noted: apparent IC50, 3 h inhibitor then 25 μM XO44 4 h. As to the method:
(§1) 1e^6 cells were plated in 15 cm plates (Greiner) 3 days before treatment and kept in a humidified atmosphere with 5% CO2 at 37 °C. The growth medium was replaced by 10 ml treatment [DMEM with 0.5% FBS and 100 units/ml PS supplemented with the corresponding concentration of NVP-BHG712 (Sigma-Aldrich) or DMSO] and incubated at 37 °C, 5% CO2 for 3 h. Then, 10 μl 25 mM XO44 (PF-6808472, Sigma-Aldrich) was added directly to the medium and swirled to enable dissolution. Subsequently, the cells were incubated at 37 °C, 5% CO2 for 4 h. The samples for Supplemental Fig. S1 were generated by directly incubating with 25 μM XO44-containing growth medium for 4 h.
(§2) After treatment, the cells were washed with ice-cold DPBS and harvested using a cell scraper in 1 ml ice-cold DPBS. Then, the cell suspension was spun down at 2000g for 1 min, and the supernatant was aspirated. The cell pellet was snap-frozen in liquid nitrogen and stored at −80 °C for later use.
(§3) Cell pellets were lysed in 500 μl lysis buffer per 15 cm plate of cells, consisting of 50 mM Hepes (Sigma-Aldrich, pH 7.5), 0.5% NP-40 (Applichem), 0.2% SDS (Gen-Apex), 2 mM MgCl2 (Sigma-Aldrich), 10 mM NaCl (Merck), 1× protease inhibitor cocktail (Roche), and 0.5 μl/ml Benzonase (Millipore). Cell lysates were incubated at room temperature for 15 min to allow DNA cleavage. Cell debris and DNA were spun down for 30 min at 20,567g at 16 °C. The supernatant was collected, and the protein concentration was determined by a bicinchoninic acid assay (Thermo Fisher Scientific).
(§4) The copper(I)-catalyzed azide-alkyne cycloaddition (CuAAC) was performed on cellular lysates in 2 M urea (Merck) in 1× 50 mM Hepes (pH 7.5). CuAAC components were added in the following order: 5 mM tris(3-hydroxypropyltriazolylmethyl)amine (Lumiprobe), 2.5 mM CuSO4 5·H2O (Sigma-Aldrich), 500 μM phosphonate-azide (prepared as described in van Bergen et al., 2023 ([28])), and 25 mM sodium ascorbate (Sigma-Aldrich). Samples were incubated for 2 h at room temperature while rotating. Methanol–chloroform precipitation was performed to remove the CuAAC components, and the air-dried pellets were resuspended in 8 M urea and sonicated in a bioruptor (Diagenode) with the high amplitude setting for 10 min with cycles of 30 s on and 30 s off.
(§5) Clicked and dissolved protein samples were diluted to 4M urea with 50 mM ammonium bicarbonate (pH 8, AmBic, Sigma-Aldrich). The proteins were reduced with 4 mM DTT (Sigma-Aldrich) for 60 minutes at room temperature and alkylated in the dark using 8 mM iodoacetamide (Sigma-Aldrich) for 30 min. Residual iodoacetamide was quenched by adding DTT to a final concentration of 4 mM.
(§6) Next, samples were diluted 2× with 50 mM AmBic and digested with LysC (1:75 enzyme to protein ratio, Wako) for 4 h at 37 °C. Finally, proteins were digested overnight using Trypsin (1:50, enzyme to protein ratio, Sigma-Aldrich) at 37 °C. Proteolysis with chymotrypsin was performed similarly to the trypsin digestion, only replacing both proteolytic enzymes with α-chymotrypsin (bovine, 1:75, enzyme to protein ratio, Sigma-Aldrich) overnight at 37 °C. Digested material was desalted using 3 cc C18 Seppak cartridges (Waters) and air dried using a vacuum centrifuge.
(§7) For the digestion with pepsin, protease incubation (Porcine, 1:50, enzyme to protein ratio, Sigma-Aldrich) was performed for 4 h at 37 °C in 40 mM HCl (pH 2). Digested material was directly desalted using 3 cc C18 Seppak cartridges and air dried using a vacuum centrifuge.
(§8) Samples were dephosphorylated prior to immobilized metal affinity chromatography (IMAC) enrichment. Desalted peptides were dissolved in 1× rCutSmart buffer (pH 8, New England BioLabs) and incubated with 50 units of alkaline phosphatase (calf intestinal, QuickCIP, New England BioLabs) overnight at 37 °C while shaking. After dephosphorylation, all peptides were again desalted using 3 cc C18 Seppak cartridges and air-dried using a vacuum centrifuge. […]

The next test concerns the target T2, EphB4 (Homo sapiens, UniProt P54760).
T2 construct: endogenous in cells; host or cells: cultured cells treated intact (A549 per the earlier reading)
T2 sequence (P54760 16-987): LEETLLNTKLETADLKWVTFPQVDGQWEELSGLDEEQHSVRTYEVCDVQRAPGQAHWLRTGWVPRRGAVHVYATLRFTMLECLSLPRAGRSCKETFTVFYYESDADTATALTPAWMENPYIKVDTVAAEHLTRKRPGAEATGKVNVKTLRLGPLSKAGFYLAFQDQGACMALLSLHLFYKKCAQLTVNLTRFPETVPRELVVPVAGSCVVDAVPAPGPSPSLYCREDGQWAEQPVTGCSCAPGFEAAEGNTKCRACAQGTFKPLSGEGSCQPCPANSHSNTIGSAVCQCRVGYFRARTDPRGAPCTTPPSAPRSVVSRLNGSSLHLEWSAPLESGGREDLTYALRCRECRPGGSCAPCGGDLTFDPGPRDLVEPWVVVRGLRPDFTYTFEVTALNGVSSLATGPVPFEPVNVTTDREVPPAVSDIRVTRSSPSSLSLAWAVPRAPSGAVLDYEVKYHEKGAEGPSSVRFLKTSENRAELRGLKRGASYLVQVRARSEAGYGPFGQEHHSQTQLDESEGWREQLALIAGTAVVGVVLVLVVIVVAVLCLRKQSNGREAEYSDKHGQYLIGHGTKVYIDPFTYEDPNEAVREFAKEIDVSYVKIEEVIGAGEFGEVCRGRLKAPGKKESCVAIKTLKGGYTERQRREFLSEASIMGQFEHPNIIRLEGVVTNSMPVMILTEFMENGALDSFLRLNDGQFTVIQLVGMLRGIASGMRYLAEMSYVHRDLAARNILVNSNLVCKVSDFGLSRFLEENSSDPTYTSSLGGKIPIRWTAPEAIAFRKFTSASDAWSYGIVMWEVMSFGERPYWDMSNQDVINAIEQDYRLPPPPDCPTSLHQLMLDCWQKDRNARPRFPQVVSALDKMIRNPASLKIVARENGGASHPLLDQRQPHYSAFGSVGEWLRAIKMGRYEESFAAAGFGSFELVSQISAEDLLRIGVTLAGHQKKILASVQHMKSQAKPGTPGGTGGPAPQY
To be noted: apparent IC50, 3 h inhibitor then 25 μM XO44 4 h, n = 3, read-out: IC50 EphB4;K647. As to the method:
as §1, §2, §3, §4, §5, §6, §7, §8

For a further test, the target named is T3, JAK1 (Homo sapiens, UniProt P23458).
T3 construct: endogenous in cells; host or cells: cultured cells treated intact (A549 per the earlier reading)
To be noted: 0.1 nM to 25 µM inhibitor, trypsin and pepsin. The protocol: as §1, §2, §3, §4, §5, §6, §7, §8

A further test concerns the target T4, JAK2 (Homo sapiens, UniProt O60674).
T4 construct: endogenous in cells; host or cells: cultured cells treated intact (A549 per the earlier reading)
To be noted: 0.1 nM to 25 µM inhibitor, trypsin and pepsin. The protocol: as §1, §2, §3, §4, §5, §6, §7, §8

The next test deals with T5, LYN (Homo sapiens, UniProt P07948).
T5 construct: endogenous in cells; host or cells: cultured cells treated intact (A549 per the earlier reading)
To be noted: apparent IC50, pepsin-based analysis, n = 3, read-out: IC50 LYN;K275. As to the method:
as §1, §2, §3, §4, §5, §6, §7, §8

The next test concerns the target T6, MAP3K20 (Homo sapiens, UniProt Q9NYL2).
T6 construct: endogenous in cells; host or cells: cultured cells treated intact (A549 per the earlier reading)
To be noted: apparent IC50, unique peptide, n = 3, read-out: IC50 MAP3K20;K45. The protocol: as §1, §2, §3, §4, §5, §6, §7, §8

Test [1] concerns the target T7, cyclin G–associated kinase (GAK) (Homo sapiens, UniProt O14976).
T7 construct: endogenous in cells; host or cells: cultured cells treated intact (A549 per the earlier reading)
T7 sequence (O14976 1-1311): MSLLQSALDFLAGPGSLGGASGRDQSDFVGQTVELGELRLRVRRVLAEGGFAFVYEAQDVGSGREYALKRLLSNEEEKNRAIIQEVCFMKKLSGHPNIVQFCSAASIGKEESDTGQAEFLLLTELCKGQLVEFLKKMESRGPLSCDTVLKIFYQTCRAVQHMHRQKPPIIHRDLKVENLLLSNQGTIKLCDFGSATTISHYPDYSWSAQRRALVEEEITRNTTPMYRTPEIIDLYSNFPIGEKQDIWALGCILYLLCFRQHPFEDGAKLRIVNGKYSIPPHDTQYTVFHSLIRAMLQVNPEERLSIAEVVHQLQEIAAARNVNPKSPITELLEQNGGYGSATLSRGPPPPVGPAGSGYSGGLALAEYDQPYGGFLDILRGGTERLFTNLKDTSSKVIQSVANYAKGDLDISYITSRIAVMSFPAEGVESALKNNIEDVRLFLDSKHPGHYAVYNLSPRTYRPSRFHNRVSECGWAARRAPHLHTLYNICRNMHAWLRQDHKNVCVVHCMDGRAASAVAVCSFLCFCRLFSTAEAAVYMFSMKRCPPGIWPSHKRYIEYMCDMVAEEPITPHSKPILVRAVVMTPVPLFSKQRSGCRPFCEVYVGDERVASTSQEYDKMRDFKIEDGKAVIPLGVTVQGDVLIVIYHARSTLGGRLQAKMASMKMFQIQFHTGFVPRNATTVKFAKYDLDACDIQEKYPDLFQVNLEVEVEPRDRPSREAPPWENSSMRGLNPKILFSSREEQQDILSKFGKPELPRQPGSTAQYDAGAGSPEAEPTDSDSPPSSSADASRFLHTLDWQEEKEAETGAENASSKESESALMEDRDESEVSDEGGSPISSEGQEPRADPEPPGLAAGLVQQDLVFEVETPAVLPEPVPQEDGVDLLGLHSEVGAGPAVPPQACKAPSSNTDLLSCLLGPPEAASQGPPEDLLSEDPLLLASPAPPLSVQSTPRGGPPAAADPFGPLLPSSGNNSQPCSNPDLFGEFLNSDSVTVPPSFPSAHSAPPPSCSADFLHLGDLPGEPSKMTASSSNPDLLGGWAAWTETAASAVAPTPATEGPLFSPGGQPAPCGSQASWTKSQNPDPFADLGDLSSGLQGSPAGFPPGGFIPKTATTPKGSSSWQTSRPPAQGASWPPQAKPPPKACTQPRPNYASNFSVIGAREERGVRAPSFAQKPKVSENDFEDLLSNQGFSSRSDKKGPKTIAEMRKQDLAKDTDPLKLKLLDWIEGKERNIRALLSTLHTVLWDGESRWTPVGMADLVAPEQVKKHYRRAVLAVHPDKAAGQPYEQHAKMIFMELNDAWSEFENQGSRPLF
The protocol: as §1, §2, §3, §4, §5, §6, §7, §8

T1 sequence (P29317 24-976): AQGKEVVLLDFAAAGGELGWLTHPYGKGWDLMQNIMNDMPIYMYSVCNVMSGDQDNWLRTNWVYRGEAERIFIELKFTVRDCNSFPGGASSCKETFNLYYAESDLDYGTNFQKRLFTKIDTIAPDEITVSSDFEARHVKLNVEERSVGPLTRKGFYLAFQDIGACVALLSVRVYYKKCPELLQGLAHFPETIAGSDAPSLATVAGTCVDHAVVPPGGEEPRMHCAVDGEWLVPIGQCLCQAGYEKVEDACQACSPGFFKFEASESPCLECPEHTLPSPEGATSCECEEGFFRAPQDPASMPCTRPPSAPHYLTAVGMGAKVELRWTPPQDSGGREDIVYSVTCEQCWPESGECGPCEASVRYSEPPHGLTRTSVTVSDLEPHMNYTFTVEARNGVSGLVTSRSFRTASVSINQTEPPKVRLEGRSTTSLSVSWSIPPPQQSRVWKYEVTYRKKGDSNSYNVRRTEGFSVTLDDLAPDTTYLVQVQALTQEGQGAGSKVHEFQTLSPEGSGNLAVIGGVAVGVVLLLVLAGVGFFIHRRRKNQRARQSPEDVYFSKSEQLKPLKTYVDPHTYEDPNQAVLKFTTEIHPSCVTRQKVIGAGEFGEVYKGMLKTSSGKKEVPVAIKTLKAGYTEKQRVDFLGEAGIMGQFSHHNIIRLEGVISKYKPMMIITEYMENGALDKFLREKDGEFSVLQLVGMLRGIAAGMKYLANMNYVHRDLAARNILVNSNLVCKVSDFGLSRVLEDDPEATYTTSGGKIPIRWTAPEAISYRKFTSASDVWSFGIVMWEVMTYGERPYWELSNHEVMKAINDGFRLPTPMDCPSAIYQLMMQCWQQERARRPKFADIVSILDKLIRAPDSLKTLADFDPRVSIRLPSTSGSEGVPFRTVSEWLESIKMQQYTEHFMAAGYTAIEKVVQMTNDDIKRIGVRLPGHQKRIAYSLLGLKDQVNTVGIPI
T5 sequence (P07948 whole entry): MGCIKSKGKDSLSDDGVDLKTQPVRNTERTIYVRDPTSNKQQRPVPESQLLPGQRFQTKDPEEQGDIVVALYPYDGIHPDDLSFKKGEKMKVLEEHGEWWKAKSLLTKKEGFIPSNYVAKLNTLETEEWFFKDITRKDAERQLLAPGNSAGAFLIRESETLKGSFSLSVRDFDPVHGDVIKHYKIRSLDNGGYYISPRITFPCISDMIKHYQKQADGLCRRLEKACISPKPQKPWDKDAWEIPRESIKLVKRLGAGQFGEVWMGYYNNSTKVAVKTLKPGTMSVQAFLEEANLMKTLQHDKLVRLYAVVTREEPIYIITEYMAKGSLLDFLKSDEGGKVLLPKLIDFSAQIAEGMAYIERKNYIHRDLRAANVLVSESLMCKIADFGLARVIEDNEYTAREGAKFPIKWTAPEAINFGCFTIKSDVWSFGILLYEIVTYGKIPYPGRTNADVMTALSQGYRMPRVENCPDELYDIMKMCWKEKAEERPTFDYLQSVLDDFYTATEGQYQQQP
T4 sequence (O60674 whole entry): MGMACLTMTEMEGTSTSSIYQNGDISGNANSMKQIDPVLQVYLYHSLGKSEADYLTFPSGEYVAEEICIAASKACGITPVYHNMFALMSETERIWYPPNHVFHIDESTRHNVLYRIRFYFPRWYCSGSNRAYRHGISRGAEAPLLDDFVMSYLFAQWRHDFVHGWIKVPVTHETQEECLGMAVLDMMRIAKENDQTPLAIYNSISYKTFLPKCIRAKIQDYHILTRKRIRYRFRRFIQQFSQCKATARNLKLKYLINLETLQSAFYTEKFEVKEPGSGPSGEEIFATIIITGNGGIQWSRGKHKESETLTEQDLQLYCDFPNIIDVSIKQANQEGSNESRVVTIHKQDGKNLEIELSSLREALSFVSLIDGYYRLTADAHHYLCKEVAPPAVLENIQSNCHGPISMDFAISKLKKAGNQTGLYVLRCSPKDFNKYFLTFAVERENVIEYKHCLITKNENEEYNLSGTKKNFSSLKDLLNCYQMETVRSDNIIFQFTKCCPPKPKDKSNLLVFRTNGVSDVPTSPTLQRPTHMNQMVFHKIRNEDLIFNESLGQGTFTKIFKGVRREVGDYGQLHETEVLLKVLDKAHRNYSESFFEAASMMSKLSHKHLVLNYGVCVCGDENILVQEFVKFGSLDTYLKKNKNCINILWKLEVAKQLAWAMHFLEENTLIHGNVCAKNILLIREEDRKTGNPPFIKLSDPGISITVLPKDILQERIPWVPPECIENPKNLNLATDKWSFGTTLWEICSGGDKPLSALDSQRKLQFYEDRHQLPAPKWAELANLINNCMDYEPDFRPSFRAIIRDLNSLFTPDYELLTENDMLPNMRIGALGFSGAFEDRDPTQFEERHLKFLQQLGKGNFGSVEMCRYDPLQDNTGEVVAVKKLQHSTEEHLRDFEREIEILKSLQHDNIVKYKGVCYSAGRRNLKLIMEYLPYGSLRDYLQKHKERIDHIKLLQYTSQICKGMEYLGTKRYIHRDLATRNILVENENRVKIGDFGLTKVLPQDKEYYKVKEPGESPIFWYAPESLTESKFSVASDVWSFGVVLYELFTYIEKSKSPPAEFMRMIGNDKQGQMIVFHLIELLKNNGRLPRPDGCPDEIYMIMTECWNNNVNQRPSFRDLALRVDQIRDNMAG
T3 sequence (P23458 whole entry): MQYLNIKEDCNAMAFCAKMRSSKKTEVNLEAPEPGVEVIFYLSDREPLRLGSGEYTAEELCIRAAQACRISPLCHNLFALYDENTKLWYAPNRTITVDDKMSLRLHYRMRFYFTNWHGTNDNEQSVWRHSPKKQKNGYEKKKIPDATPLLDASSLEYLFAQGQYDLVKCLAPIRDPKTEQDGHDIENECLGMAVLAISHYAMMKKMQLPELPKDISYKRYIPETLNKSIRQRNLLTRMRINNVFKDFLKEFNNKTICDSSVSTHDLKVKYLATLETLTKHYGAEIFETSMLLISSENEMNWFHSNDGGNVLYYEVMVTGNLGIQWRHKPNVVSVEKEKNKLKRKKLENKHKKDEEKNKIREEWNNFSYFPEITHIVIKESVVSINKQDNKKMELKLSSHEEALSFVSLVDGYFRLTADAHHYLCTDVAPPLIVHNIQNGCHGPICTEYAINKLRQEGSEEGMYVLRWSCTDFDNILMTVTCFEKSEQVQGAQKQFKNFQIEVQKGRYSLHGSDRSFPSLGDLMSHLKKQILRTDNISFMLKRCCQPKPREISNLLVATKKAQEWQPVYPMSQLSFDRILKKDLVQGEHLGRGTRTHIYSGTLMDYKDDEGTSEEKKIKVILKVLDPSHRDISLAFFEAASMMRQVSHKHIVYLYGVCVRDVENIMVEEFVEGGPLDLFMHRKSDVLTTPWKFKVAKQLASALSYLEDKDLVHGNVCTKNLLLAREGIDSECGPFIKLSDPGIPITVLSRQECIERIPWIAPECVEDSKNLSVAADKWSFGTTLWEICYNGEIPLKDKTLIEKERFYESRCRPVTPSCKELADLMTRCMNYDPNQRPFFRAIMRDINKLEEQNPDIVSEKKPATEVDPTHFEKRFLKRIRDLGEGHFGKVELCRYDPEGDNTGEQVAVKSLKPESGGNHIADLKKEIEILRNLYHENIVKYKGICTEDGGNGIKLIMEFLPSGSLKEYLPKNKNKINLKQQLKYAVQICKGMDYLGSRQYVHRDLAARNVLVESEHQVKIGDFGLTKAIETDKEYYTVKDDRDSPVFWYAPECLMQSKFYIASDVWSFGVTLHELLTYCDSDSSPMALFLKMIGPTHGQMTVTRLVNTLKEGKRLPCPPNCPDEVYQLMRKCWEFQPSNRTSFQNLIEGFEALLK

The term IC50 denotes the concentration that inhibits the measured activity by half. NVP-BHG712: the IC50 at EphA2 (pepsin, n = 3, read-out: IC50 EphA2;K646, peptic analysis) was 20.5 nM; at EphA2 (trypsin, n = 3, read-out: IC50 EphA2;K646, tryptic analysis), 17 nM; on EphB4 it was 20 nM and 20.2 nM; at LYN it was 13.4 µM; on MAP3K20 it was 2900 nM; in test [1] (apparent IC50, lysine 69 in ATP pocket, n = 3, read-out: IC50 GAK;K69) it was 9.4 µM. Also, in test [1] (apparent IC50, lysine 175 in ATP pocket, n = 3, read-out: IC50 GAK;K175), the half-inhibitory concentration (IC50) was 13 µM. Further, on JAK1, the “Interaction with ATP-binding pocket, JAK1;K908 signal across the concentration range” value is “do not interact”. Also, the “Interaction with ATP-binding pocket, JAK2;K882 signal across the concentration range” value at JAK2 is listed as “do not interact”.
